We go through 1 sequence from patent publication US20100303833A1, “Method for Identifying a MHC Class H-Dependent Tumor Associated T Helper Cell Antigen” (priority 2005, published 2010).

What all share (type): cell-based, human
One assay relates to lymphocytes. In words: IFN-γ release assay (ELISA). As for the experimental part:
IFN-γ Release Assay. Supernatants obtained 48 hours after T helper cell stimulation with phage-pulsed EBV-B cells were tested for the presence of IFN-γ using an ENDOGEN ELISA kit (Pierce Biotechnology, Inc., Rockford, Ill.).
For orientation: In an ELISA, binding on a coated surface is turned into a signal by an enzyme label.

Another assay relates to Th35-1A cells. In words: Lymphocyte proliferation assay ([3H]-thymidine incorporation), Th35-1A cells with peptide-pulsed monocytes. Particulars: for HLA dependence of peptide recognition by Th35-1A: peptide-pulsed autologous DR7+ monocytes, anti-HLA class II antibody or control mouse Ig at 10 μg/mL (FIG. 2A). As for the experimental part: (§1) Lymphocyte Proliferation Assay. The lymphocyte proliferation assay was performed according to standard methods (Somasundaram, et al. (1995) J. Immunol. 155:3253-61). For screening of Th35-1A cell-reactivity with phage libraries, T helper cells (1-2×10^4/well of 96-well round-bottom microtiter plates; CORNING, Corning, N.Y.) were cultured with irradiated autologous EBV-B cells (10^4/well) pre-pulsed with 1-3×10^3 phage. To determine T helper or PBMC reactivity with peptide, adherent monocytes (5×10^4/well, obtained from PBMC) pre-pulsed with various concentrations (3.1-50 μM) of peptide were incubated with Th35-1A cells or PBMC (5×10^4/well). T helper cells or PBMC were stimulated with peptide-pulsed monocytes once or twice. All incubations were at 37° C. for 5 days in RPMI 1640/GLUTAMAX medium supplemented with 10% heat-inactivated human AB serum (Gemini Bioproducts, West Sacramento, Calif.), 10 mM HEPES and 5×10^−5 M 2-mercaptoethanol (both from SIGMA-ALDRICH). Proliferative responses of lymphocytes were determined using a standard [^3H]-thymidine incorporation assay. All determinations were performed in triplicate. Results are expressed as counts per minute (cpm) incorporated into lymphocytes. The lymphocyte proliferation inhibition assay with anti-HLA class II antibody B33.1 was performed using established methods (Somasundaram, et al. (1995) supra).
For orientation: Dividing cells build labelled thymidine or BrdU into new DNA.

Another assay concerns PBMC. In words: Lymphocyte proliferation assay ([3H]-thymidine incorporation), PBMC with peptide-pulsed autologous monocytes. On the procedure: as §1

Ends that are not written are not given here.

“TGRLRGTKTVQEKEN [peptide #2, RPL8 position 243-257]”: the IFN-γ produced with lymphocytes (non-proliferating lymphocytes from two DR7− patients (FIGS. 3D, 3E) and healthy donor (FIG. 3F)) was < 12 pg/mL. Besides, the IFN-γ produced maximally in the assay on lymphocytes (proliferating lymphocytes from DR7+ patient of FIG. 3A) is given as 124.3±1.67 pg per mL; with lymphocytes (proliferating lymphocytes from DR7+ patient of FIG. 3B), 224.3±4.3 pg per mL. In addition, the “Recognition by Th35-1A” value in the assay on Th35-1A cells (after presentation by autologous monocytes (FIG. 2A)) is given as “recognized”. Further, the “Presentation of peptide to Th35-1A cells by allogeneic DR7+ monocytes” value with Th35-1A cells (allogeneic DR7+ monocytes (FIG. 2C)) is reported as “presented”. Moreover, in the assay with Th35-1A cells (allogeneic DR7− monocytes (FIG. 2D)), the “Presentation of peptide to Th35-1A cells by DR7− monocytes” value is “did not”. For the same sequence, the “HLA dependence of peptide recognition by Th35-1A” value in the assay with Th35-1A cells was “HLA class II-dependent”; with Th35-1A cells (listed as RPL8 peptide #2), “HLA DR7- and peptide concentration-dependent”. The “Th35-1A proliferation, dependence on peptide concentration” value in the assay with Th35-1A cells (peptide-pulsed autologous monocytes, various concentrations (FIG. 2B)) was “peptide concentration-dependent”. Also, the “Proliferation of autologous PBMC following peptide stimulation” value in the assay on PBMC (lymphocytes from two of the three DR7+ melanoma patients (FIGS. 3A-3C), stimulated twice) was “significantly and specifically proliferated”. In addition, the “Lymphoproliferative responses to peptide stimulation” value in the assay with PBMC (two DR7− melanoma patients (FIGS. 3D, 3E) and four healthy donors (FIG. 3F), one peptide stimulation, listed as RPL8 peptide #2) is recorded as “did not respond”.
